In ChEMBL document CHEMBL1201862, “PubChem BioAssay data set” (2004):
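Dose response: 5 concentrations. Exposure: 48 h. Format: 96-well plates. Endpoint: linear interpolation; highest concentration if not reached. Abbreviation: GI50, concentration required for 50% inhibition of growth.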 Calls of active or inactive are those of the source. No stated cut-off is given here; in the data, active = GI50 up to about 1.1 µM and inactive = higher.

What was measured:
Assay in all cases: growth of human tumour cells (NCI), 48 h
Hs-578T = system: Hs-578T
T47D = system: T47D
OVCAR-4 = system: OVCAR-4
MCF7 = system: MCF7
TK-10 = system: TK-10
UO-31 = system: UO-31
SNB-75 = system: SNB-75
A498 = system: A498
SF-539 = system: SF-539
UACC-62 = system: UACC-62
KM12 = system: KM12
HCT-15 = system: HCT-15
U-251 = system: U-251
MDA-MB-231 = system: MDA-MB-231
SF-295 = system: SF-295
SR = system: SR
NCI/ADR-RES = system: NCI/ADR-RES
IGROV-1 = system: IGROV-1
OVCAR-8 = system: OVCAR-8
DU-145 = system: DU-145
COLO 205 = system: COLO 205
BT-549 = system: BT-549
SW-620 = system: SW-620
MDA-MB-435 = system: MDA-MB-435
SK-MEL-5 = system: SK-MEL-5
HOP-92 = system: HOP-92
SN12C = system: SN12C
SK-OV-3 = system: SK-OV-3
NCI-H23 = system: NCI-H23
CCRF-CEM = system: CCRF-CEM
EKVX = system: EKVX
NCI-H226 = system: NCI-H226
NCI-H522 = system: NCI-H522
786-0 = system: 786-0
MDA-N = system: MDA-N
OVCAR-5 = system: OVCAR-5
PC-3 = system: PC-3
CAKI-1 = system: CAKI-1
K562 = system: K562
SK-MEL-2 = system: SK-MEL-2
ACHN = system: ACHN
OVCAR-3 = system: OVCAR-3
HCT-116 = system: HCT-116
HT-29 = system: HT-29
RPMI-8226 = system: RPMI-8226
Malme-3M = system: Malme-3M
SF-268 = system: SF-268
HL-60 = system: HL-60
M14 = system: M14
MOLT-4 = system: MOLT-4
UACC-257 = system: UACC-257
RXF 393 = system: RXF 393
NCI-H460 = system: NCI-H460
A549 = system: A549
HOP-62 = system: HOP-62
SK-MEL-28 = system: SK-MEL-28
LOX IMVI = system: LOX IMVI
HCC 2998 = system: HCC 2998
SNB-19 = system: SNB-19

Q: Which results are given for `COc1ccc(/C=C/c2cnc3ccccc3n2)cc1OC`?
A: GI50 (Hs-578T): 89.3 µM (inactive); GI50 (T47D): 31 µM (inactive); GI50 (OVCAR-4): 34.8 µM (inactive); GI50 (MCF7): 54.5 µM (inactive); GI50 (TK-10): > 100 µM (inactive); GI50 (UO-31): 34.7 µM (inactive); GI50 (SNB-75): 63.8 µM (inactive); GI50 (A498): 45.7 µM (inactive); GI50 (SF-539): > 100 µM (inactive); GI50 (UACC-62): 77.3 µM (inactive); GI50 (KM12): 47.8 µM (inactive); GI50 (HCT-15): 37 µM; GI50 (U-251): 80.2 µM (inactive); GI50 (MDA-MB-231): 99.8 µM (inactive); GI50 (SF-295): 52.8 µM (inactive); GI50 (SR): > 100 µM (inactive); GI50 (NCI/ADR-RES): 38.2 µM (inactive); GI50 (IGROV-1): > 100 µM (inactive); GI50 (OVCAR-8): 41.7 µM (inactive); GI50 (DU-145): > 100 µM (inactive); GI50 (COLO 205): 72.1 µM (inactive); GI50 (BT-549): 57.1 µM (inactive); GI50 (SW-620): > 100 µM (inactive); GI50 (MDA-MB-435): 44.1 µM (inactive); GI50 (SK-MEL-5): 49.3 µM (inactive); GI50 (HOP-92): 94.8 µM (inactive); GI50 (SN12C): 52.7 µM (inactive); GI50 (SK-OV-3): 75.7 µM (inactive); GI50 (NCI-H23): 67.8 µM (inactive); GI50 (CCRF-CEM): > 100 µM (inactive); GI50 (EKVX): 63.1 µM (inactive); GI50 (NCI-H226): > 100 µM (inactive); GI50 (NCI-H522): 24.1 µM (inactive); GI50 (786-0): 53.6 µM (inactive); GI50 (MDA-N): 59 µM (inactive); GI50 (OVCAR-5): > 100 µM (inactive); GI50 (PC-3): 33.1 µM (inactive); GI50 (CAKI-1): 74.3 µM (inactive); GI50 (K562): 44.5 µM (inactive); GI50 (SK-MEL-2): 92.7 µM (inactive); GI50 (ACHN): > 100 µM (inactive); GI50 (OVCAR-3): 93.1 µM (inactive); GI50 (HCT-116): 47.2 µM (inactive); GI50 (HT-29): 36.1 µM (inactive); GI50 (RPMI-8226): 71.6 µM (inactive); GI50 (Malme-3M): 38.2 µM (inactive); GI50 (SF-268): > 100 µM (inactive); GI50 (HL-60): 47.2 µM (inactive); GI50 (M14): 75.7 µM (inactive); GI50 (MOLT-4): > 100 µM (inactive); GI50 (UACC-257): > 100 µM (inactive); GI50 (RXF 393): > 100 µM (inactive); GI50 (NCI-H460): 30.3 µM (inactive); GI50 (A549): 42.6 µM (inactive); GI50 (HOP-62): 68.1 µM (inactive); GI50 (SK-MEL-28): 92.3 µM (inactive); GI50 (LOX IMVI): 83.8 µM (inactive)

Q: `O=C(CCCN1CCC2(CC1)CC(=O)N(N1CCCCCC1)C2=O)c1ccc(F)cc1` was tested. Which GI50 (Hs-578T) did it give?
A: 35.7 µM (inactive)

Q: What about the GI50 (T47D) of the same molecule?
A: 77.1 µM (inactive)

Q: What about the GI50 (OVCAR-4) of the same molecule?
A: 40.6 µM (inactive)

Q: And the GI50 (MCF7)?
A: 46.2 µM (inactive)

Q: And the GI50 (TK-10)?
A: > 100 µM (inactive)

Q: What about the GI50 (UO-31) of the same molecule?
A: 91.6 µM (inactive)

Q: What about the GI50 (SNB-75) of the same molecule?
A: 50.8 µM (inactive)

Q: What about the GI50 (A498) of the same molecule?
A: 62.7 µM (inactive)

Q: What about the GI50 (SF-539) of the same molecule?
A: > 100 µM (inactive)

Q: What about the GI50 (UACC-62) of the same molecule?
A: > 100 µM (inactive)

Q: And the GI50 (HCT-15)?
A: > 100 µM

Q: And the GI50 (U-251)?
A: > 100 µM (inactive)

Q: And the GI50 (MDA-MB-231)?
A: 82.6 µM (inactive)

Q: What about the GI50 (SF-295) of the same molecule?
A: 27.6 µM (inactive)

Q: What about the GI50 (SR) of the same molecule?
A: 29.2 µM (inactive)

Q: What about the GI50 (NCI/ADR-RES) of the same molecule?
A: 18.2 µM (inactive)

Q: And the GI50 (IGROV-1)?
A: > 100 µM (inactive)

Q: What about the GI50 (OVCAR-8) of the same molecule?
A: 18.5 µM (inactive)

Q: And the GI50 (DU-145)?
A: > 100 µM (inactive)

Q: What about the GI50 (COLO 205) of the same molecule?
A: > 100 µM (inactive)

Q: What about the GI50 (BT-549) of the same molecule?
A: 65.5 µM (inactive)

Q: And the GI50 (SW-620)?
A: > 100 µM (inactive)

Q: And the GI50 (MDA-MB-435)?
A: > 100 µM (inactive)

Q: What about the GI50 (SK-MEL-5) of the same molecule?
A: 34.4 µM (inactive)

Q: And the GI50 (SN12C)?
A: > 100 µM (inactive)

Q: And the GI50 (SK-OV-3)?
A: 91.6 µM (inactive)

Q: And the GI50 (NCI-H23)?
A: 54.2 µM (inactive)

Q: And the GI50 (CCRF-CEM)?
A: 5.7 µM (inactive)

Q: And the GI50 (EKVX)?
A: > 100 µM (inactive)

Q: And the GI50 (NCI-H522)?
A: 52.7 µM (inactive)

Q: What about the GI50 (786-0) of the same molecule?
A: 20.8 µM (inactive)

Q: What about the GI50 (MDA-N) of the same molecule?
A: > 100 µM (inactive)

Q: And the GI50 (OVCAR-5)?
A: 41.7 µM (inactive)

Q: And the GI50 (PC-3)?
A: > 100 µM (inactive)

Q: What about the GI50 (CAKI-1) of the same molecule?
A: 81.5 µM (inactive)

Q: And the GI50 (K562)?
A: 32.4 µM (inactive)

Q: And the GI50 (SK-MEL-2)?
A: > 100 µM (inactive)

Q: And the GI50 (ACHN)?
A: > 100 µM (inactive)

Q: And the GI50 (OVCAR-3)?
A: > 100 µM (inactive)

Q: What about the GI50 (HCT-116) of the same molecule?
A: 55 µM (inactive)

Q: And the GI50 (HT-29)?
A: 16.4 µM (inactive)

Q: And the GI50 (RPMI-8226)?
A: 58.5 µM (inactive)

Q: And the GI50 (Malme-3M)?
A: 52.8 µM (inactive)

Q: What about the GI50 (SF-268) of the same molecule?
A: > 100 µM (inactive)

Q: What about the GI50 (HL-60) of the same molecule?
A: 14.1 µM (inactive)

Q: And the GI50 (M14)?
A: 33.6 µM (inactive)

Q: And the GI50 (MOLT-4)?
A: 36.1 µM (inactive)

Q: And the GI50 (UACC-257)?
A: 26.7 µM (inactive)

Q: What about the GI50 (RXF 393) of the same molecule?
A: 23.6 µM (inactive)

Q: And the GI50 (A549)?
A: > 100 µM (inactive)

Q: And the GI50 (HOP-62)?
A: 35.1 µM (inactive)

Q: What about the GI50 (SK-MEL-28) of the same molecule?
A: > 100 µM (inactive)

Q: And the GI50 (LOX IMVI)?
A: 33.1 µM (inactive)

Q: What does the source list for `CCCCCCCCOC1C(O)C(O)C(O)C(O)C12CO2` (stereo not given)?
A: GI50 (Hs-578T): 54.5 µM (inactive); GI50 (T47D): 63.2 µM (inactive); GI50 (MCF7): 46.5 µM (inactive); GI50 (TK-10): > 100 µM (inactive); GI50 (UO-31): 78 µM (inactive); GI50 (SNB-75): 32 µM (inactive); GI50 (A498): > 100 µM (inactive); GI50 (SF-539): > 100 µM (inactive); GI50 (UACC-62): 83.4 µM (inactive); GI50 (KM12): 43.9 µM (inactive); GI50 (HCT-15): 50.4 µM; GI50 (HCC 2998): 68.5 µM (inactive); GI50 (U-251): 41.9 µM (inactive); GI50 (MDA-MB-231): 39.8 µM (inactive); GI50 (SF-295): 43.8 µM (inactive); GI50 (SR): 48.4 µM (inactive); GI50 (NCI/ADR-RES): 40.5 µM (inactive); GI50 (IGROV-1): 75.5 µM (inactive); GI50 (OVCAR-8): 62.7 µM (inactive); GI50 (DU-145): 76.6 µM (inactive); GI50 (SNB-19): 91.4 µM (inactive); GI50 (COLO 205): > 100 µM (inactive); GI50 (BT-549): 37.6 µM (inactive); GI50 (SW-620): 45.4 µM (inactive); GI50 (MDA-MB-435): 29.8 µM (inactive); GI50 (SK-MEL-5): > 10 µM (inactive); GI50 (SN12C): 51.2 µM (inactive); GI50 (SK-OV-3): 38.3 µM (inactive); GI50 (NCI-H23): 16.1 µM (inactive); GI50 (CCRF-CEM): 28.3 µM (inactive); GI50 (NCI-H226): 86.1 µM (inactive); GI50 (NCI-H522): 26.7 µM (inactive); GI50 (786-0): 73.8 µM (inactive); GI50 (MDA-N): 32.4 µM (inactive); GI50 (OVCAR-5): > 10 µM (inactive); GI50 (PC-3): 55.3 µM (inactive); GI50 (CAKI-1): 90.4 µM (inactive); GI50 (K562): 38.5 µM (inactive); GI50 (SK-MEL-2): 53.8 µM (inactive); GI50 (ACHN): 53.8 µM (inactive); GI50 (OVCAR-3): 50.4 µM (inactive); GI50 (HCT-116): 41 µM (inactive); GI50 (HT-29): 49.5 µM (inactive); GI50 (RPMI-8226): 50.2 µM (inactive); GI50 (Malme-3M): 57.5 µM (inactive); GI50 (SF-268): 64.4 µM (inactive); GI50 (HL-60): 42 µM (inactive); GI50 (MOLT-4): 38.9 µM (inactive); GI50 (UACC-257): > 100 µM (inactive); GI50 (RXF 393): 29 µM (inactive); GI50 (NCI-H460): 45.4 µM (inactive); GI50 (A549): 49.5 µM (inactive); GI50 (HOP-62): 44.6 µM (inactive); GI50 (SK-MEL-28): > 100 µM (inactive); GI50 (LOX IMVI): 48.4 µM (inactive)
